Experimental data taken from US20190142835A1, “INHIBITION OF AUTOPHAGY USING PHOSPHOLIPASE A2 INHIBITORS” (OREGON HEALTH & SCIENCE UNIVERSITY, priority 2017, published 2019).

Experiments:
ACHN cells [1] = assay: High content imaging screen of 116 small molecule inhibitors for p62 and pS6; format: cell-based, human; conditions: HCI screen, 72 hr; for p62 expression and phosphorylation of S6: 7-point dilution series
Description: We used a metastatic human RCC cell line, ACHN. Small molecule inhibitors have been extensively used in RCC over the last decade. […] Importantly, p62 is an autophagy substrate that is degraded along with its cargo, and so is expected to decrease with induction of autophagy. Therefore, we monitored p62 steady-state levels as an initial screen of autophagy flux. Next, we combined the measurement of the p62 with a measurement of mTORC1 activity an independent readout to evaluate autophagy. mTORC1 plays the central role in the anabolic process by increasing protein content through ribosomal biogenesis and elongation of protein translation. Specifically, mTORC1 induces mRNA translation by inducing the activation of p70S6 kinase and the subsequent phosphorylation of the S6 ribosomal protein. To ensure increased cellular biomass, mTORC1 downregulates autophagy. We chose the phosphorylation status of the downstream target of mTORC1 signaling, ribosomal S6 (hereafter S6) as a readout for mTORC1 activity.
To provide a straightforward method for detecting the induction of autophagy, we monitored ACHN cells for small molecule inhibitors which decreased the antibody labelled levels of p62 protein and pS6 phosphorylation (see methods below for detailed experiment procedure). To that end, automated high content imaging (HCl) microscopy was used to detect induction of autophagy as documented by the […] by p62 protein expression and mTORC1 inhibition by the decrease in S6 phosphorylation. The HCl assay was optimized for 384-well plate screening. Drug screening plates were designed and created as previously described.
A 7-point dilution series of 116 small molecule inhibitors covering a 1000× concentration range were plated into three, 384-well plates using the EP Motion automated dispensing system. Control wells with equal volumes of DMSO were included as negative controls. ACHN cells were grown, trypsinized counted, and plated directly into warm drug plates using Multidrop combi dispenser. Plates were incubated for 72 hr and subsequently imaged on the Olympus ScanR Platform at 10× magnification performing 4 images per well in 384 well plates. Single-cell nuclear and cytoplasmic fluorescent intensities were calculated using the Olympus ScanR Analysis Software: the DAPI-positive region of each cell was used as a boundary to quantitate nuclei counts for analysis of cell growth and integrated nuclear DNA staining intensity was used for cell cycle analysis. A 10-pixel extension of the nuclear region (and not including the nuclear region) was used to quantitate cytoplasmic signal of immunofluorescent staining of p62 protein and phosphorylation of S6. Mean signal intensity of each marker in all cells per well was used as the metric for cytoplasmic marker expression (average intensity of pS6 and p62). Unsupervised hierarchical clustering was used to identify compounds that produced similar pS6 and p62 dose response phenotypes after treatment.

SN12C cells [2] = assay: Apoptosis (Caspase 3/7-Glo), SN12C; format: cell-based, human; conditions: 72 h
Protocol: (§1) Apoptosis was determined using Caspase 3/7-Glo assay kit (Promega) following the manufacturer's instructions. Briefly, 2000 cells per well were plated in 96 well plates and cultured for 72 h. […] Caspase 3/7 activity was measured using a luminometer. Luminescence values were normalized by cell numbers.

[3] = test system: PI3K, mTORC1 and mTORC2 signaling; assay: Western blotting of PI3K-AKT-mTOR signaling; format: cell-based, human
Protocol: Cells were plated in 6 well dishes and treated the following day with the indicated agents. Treatments were for 24 hours, after which cells were washed with ice cold PBS and lysed with RIPA buffer (Sigma). Phosphatase inhibitor cocktail set II and protease inhibitor cocktail set III (EMD Millipore) were added at the time of lysis. Lysates were centrifuged at 15,000 g×10 min at 4 degrees C. Protein concentrations were calculated based on a BCA assay (Thermo Scientific) generated standard curve. Proteins were resolved using the NuPAGE Novex Mini Gel system on 4% to 12% Bis-Tris Gels (Invitrogen). For western blotting, equal amounts of cell lysates (15-20 μg of protein) were resolved with SDSPAGE, and transferred to membranes. The membrane was probed with primary antibodies, washed, and then incubated with corresponding fluorescent secondary antibodies and washed. The fluorescent signal was captured using LI-COR (Lincoln, Nebr.) Odyssey Imaging System, and fluorescent intensity was quantified using the Odyssey software where indicated. The following antibodies were used for Western blots: p-S6 (S240/244), S6, LC3B, p-Akt(S473), p-Akt(T308), Akt, cleaved caspase3 (Cell Signaling Technologies). p-Stat3 (Y705), Stat3 and β-actin (AC15) (Abcam). Ki67 (Dako) and cleaved caspase3 (Cell Signaling Technologies) were used for immunohistochemistry. […] BX795 and GDC0941 were purchased from Sigma.

SN12C cells [4] = assay: Cell viability (CellTiter-Glo), SN12C; format: cell-based, human; conditions: 3 days
Protocol: Cell viability assays were performed by plating 2000 cells/well in 96-well plates in triplicate and treating the following day with the indicated agent. The experiment was continued for 3 days and then cell viability was determined using CellTiter-Glo assay kit (Promega). The assay was measured using a luminometer. […] Experimental results are the average of at least three independent experiments.

ACHN cells [5] = assay: Apoptosis (Caspase 3/7-Glo), ACHN; format: cell-based, human
Protocol: as §1

ACHN cells [6] = assay: Cell viability (CellTiter-Glo), ACHN; format: cell-based, human; conditions: for proliferation (cell viability): ACHN, 3 days
Protocol: Cell viability assays were performed by plating 2000 cells/well in 96-well plates in triplicate and treating the following day with the indicated agent. The experiment was continued for 3 days and then cell viability was determined using CellTiter-Glo assay kit (Promega).
The assay was measured using a luminometer. […] Experimental results are the average of at least three independent experiments.

ACHN cells [7] = assay: Lipid droplet staining (Bodipy 493/503), ACHN; format: cell-based, human
Protocol: Cells were grown on coverslips then treated with drug for 24 hours. Cells were fixed in 4% paraformaldehyde for 15 min, rinsed with PBS. Cells were washed with a 1% saponin solution for 15 min at room temperature then washed several times in PBS to remove detergent. Cells were then incubated in Bodipy (ThermoFisher #D3922) at a final concentration of 1 uM for 10 min. Bodipy was removed and slides were rinsed with PBS then air dried and mounted on slides using Dako mounting media with Dapi.

mTORC1 = assay: Autophagy induction and mTORC1 inhibition by JAK inhibitors not contained in the library; format: cell-based
ACHN cells [8] = assay: Cellular respiration (XF96 Seahorse, ECAR and OCR); format: cell-based, human; conditions: 24 h
Protocol: Oxygen consumption and extracellular acidification rates were carried out in a XF96 Seahorse Analyzer (Seahorse Bioscience, Billerica, Mass., USA). Cells were plated in the wells of 96-well plates (8×10^3 cells/well; XF96 plates, Seahorse Bioscience, North Billerica, Mass.) and incubated at 37° C. overnight. The next day, cells were treated with indicated drugs for 24 hours and then the medium was changed to XF Assay Medium and loaded with glucose, oligomycin, and 2-DG, respectively, as manufacture's recommendation.

Cn1c(=O)n(-c2ccc(C(C)(C)C#N)cc2)c2c3cc(-c4cnc5ccccc5c4)ccc3ncc21 [BEZ-235]
p62 expression and phosphorylation of S6 (ACHN cells [1]): reduced both p62 expression and phosphorylation of S6

O=C(c1ccc(/C=C/c2n[nH]c3ccccc23)cc1)N1CCNCC1 [KW2449]
induction of autophagy / autophagic flux (ACHN cells [1]): induce autophagy

O=C(NCCCNc1nc(Nc2cccc(NC(=O)N3CCCC3)c2)ncc1I)c1cccs1 [BX795]
apoptosis (cleaved-caspase 3/7) (SN12C cells [2]): little or no effect on apoptosis | mTORC1 or mTORC2 signaling (AKT S473 and S6 phosphorylation) [3]: not able to inhibit mTORC1 or mTORC2 signaling | proliferation (cell viability) (SN12C cells [4]): some anti-proliferative effects | apoptosis (cleaved-caspase 3/7) (ACHN cells [5]; ACHN, 72 h): little or no effect on apoptosis | proliferation (cell viability) (ACHN cells [6]): some anti-proliferative effects

CC(C)n1nc(-c2cc3cc(O)ccc3[nH]2)c2c(N)ncnc21 [PP-242]
p62 expression and phosphorylation of S6 (ACHN cells [1]): reduced both p62 expression and phosphorylation of S6

CC(C)C[C@H](NC(=O)[C@H](Cc1ccccc1)NC(=O)c1cnccn1)B(O)O [Velcade]
p62 expression and phosphorylation of S6 (ACHN cells [1]): reduced both p62 expression and phosphorylation of S6

CCc1c(C(=O)C(N)=O)c2c(OCC(=O)O)cccc2n1Cc1ccccc1 [varespladib]
LDs on addition to CYT387-MK2206 treated cells (ACHN cells [7]): decreased LDs | apoptosis on addition to CYT387-MK2206 treated cells (ACHN cells [5]): increased apoptosis

C[C@]12O[C@H](C[C@]1(O)CO)n1c3ccccc3c3c4c(c5c6ccccc6n2c5c31)CNC4=O [CEP-701]
autophagy induction (mTORC1): potently induced autophagy | mTORC1 inhibition (mTORC1): inhibited mTORC1

CS(=O)(=O)N1CCN(Cc2cc3nc(-c4cccc5[nH]ncc45)nc(N4CCOCC4)c3s2)CC1 [GDC-0941]
effect on mTORC1 activity in cells treated with CYT387 ([3]; added to CYT387): additive inhibitory effect on mTORC1 activity | proliferation (cell viability) (SN12C cells [4]): some anti-proliferative effects | proliferation (cell viability) (ACHN cells [6]): some anti-proliferative effects

CN1CC[C@H](c2c(O)cc(O)c3c(=O)cc(-c4ccccc4Cl)oc23)[C@H](O)C1 [Flavopiridol]
p62 expression and phosphorylation of S6 (ACHN cells [1]): reduced both p62 expression and phosphorylation of S6

CCCCCCCC/C=C\CCCCCCCCOCCOP(=O)([O-])OCC[N+](C)(C)C [OOEPC, oleyloxyethylphosphocholine]
LD abundance on addition to CYT387, MK2206 and CYT387-MK2206 co-treated cells (ACHN cells [7]; 24 hrs): significantly reduced the LD abundance | apoptosis (Caspase3/7 activity) on addition to CYT387, MK2206, CYT387+MK2206 (ACHN cells [5]): significantly increased apoptosis | proliferation on co-treatment with CYT387, MK2206, CYT387+MK2206 (ACHN cells [6]): minimal additional effect on proliferation | ECAR and OCR on addition to the CYT387-MK2206 combination (ACHN cells [8]): markedly decreased ECAR and OCR | basal OCR on addition to the CYT387-MK2206 combination (ACHN cells [8]): marked decrease in the basal OCR | spare respiratory capacity on addition to the CYT387-MK2206 combination (ACHN cells [8]): significantly reduced the spare respiratory capacity

O=S(=O)(NCCNC/C=C/c1ccc(Br)cc1)c1cccc2cnccc12 [H89]
p62 expression and phosphorylation of S6 (ACHN cells [1]): reduced both p62 expression and phosphorylation of S6

CN[C@@H]1C[C@H]2O[C@@](C)([C@@H]1OC)n1c3ccccc3c3c4c(c5c6ccccc6n2c5c31)C(=O)NC4 [Staurosporine]
p62 expression and phosphorylation of S6 (ACHN cells [1]): reduced both p62 expression and phosphorylation of S6

Oc1nc(-c2ccc(C(F)(F)F)cc2)nc2c1CSCC2 [XAV939]
induction of autophagy / autophagic flux (ACHN cells [1]): induce autophagy
